Drawing on ChEMBL document CHEMBL5625189, “Discovery of new diaryl ether inhibitors against Mycobacterium tuberculosis targeting the minor portal of InhA” (Eur J Med Chem, 2023), this text covers MIC for three compounds.

≈ marks a conversion by molar mass, not a printed value.

A word on the MIC: it is the smallest concentration in the dilution series that meets the test's criterion for growth inhibition.

What all share (format): functional
Common to all, as to details: 432 h, time 18 day

Test [1] concerns Mycobacterium tuberculosis. Briefly: Antimycobacterial activity against Mycobacterium tuberculosis H37Ra harbouring pVV16 plasmid overexpressing hadABC assessed as inhibition of bacterial growth incubated for 18 days by drop dilution method.
Test [2] has as its system Mycobacterium tuberculosis. In words: Antimycobacterial activity against Mycobacterium tuberculosis H37Ra harbouring pVV2 plasmid overexpressing katG assessed as inhibition of bacterial growth incubated for 18 days by drop dilution method.
Test [3] deals with Mycobacterium tuberculosis. Briefly: Antimycobacterial activity against Mycobacterium tuberculosis H37Ra harbouring pVV2 plasmid assessed as inhibition of bacterial growth incubated for 18 days by drop dilution method.
For test [4], the system named is Mycobacterium tuberculosis. In words: Antimycobacterial activity against Mycobacterium tuberculosis H37Ra harbouring pMV261 plasmid assessed as inhibition of bacterial growth incubated for 18 days by drop dilution method.
In test [5] the test system is Mycobacterium tuberculosis. Briefly: Antimycobacterial activity against Mycobacterium tuberculosis H37Ra harbouring pMV261 plasmid overexpressing InhA assessed as inhibition of bacterial growth incubated for 18 days by drop dilution method.

`CCN(CC)c1ccc2c(OCc3cn(Cc4ccc(Oc5ccccc5)c(O)c4)nn3)cc(=O)oc2c1`: the MIC in test [1] is 6.25 µM (≈ 3.2 µg/mL); in test [2], 6.25 µM (≈ 3.2 µg/mL); in test [3], 6.25 µM (≈ 3.2 µg/mL); in test [4], 6.25 µM (≈ 3.2 µg/mL); in test [5], more than 25 µM.
As to `CCCCCCc1ccc(Oc2ccc(Cn3cc(CNc4ccc([N+](=O)[O-])c5nonc45)nn3)cc2)c(O)c1`, the minimal inhibitory concentration (MIC) in test [1], in test [2], in test [3], in test [4] and in test [5] was 2.5 µM (≈ 1.36 µg/mL) each time.
Take `Cc1cc(=O)oc2cc(OCc3cn(Cc4ccc(Oc5ccccc5)c(O)c4)nn3)ccc12`: the MIC in test [1] was 1.25 µM (≈ 0.569 µg/mL); in test [2] it was 1.25 µM (≈ 0.569 µg/mL); in test [3], 1.25 µM (≈ 0.569 µg/mL); in test [4], 1.25 µM (≈ 0.569 µg/mL); in test [5], 12.5 µM (≈ 5.69 µg/mL).
